In patent US20240101531A1, “PYRIDINAMINE DERIVATIVES AND THEIR USE AS POTASSIUM CHANNEL MODULATORS” (Xenon Pharmaceuticals Inc., priority 2022, published 2024) one finds EC50 data, which are given here for 29 compounds.

Structures can show the parent of a compound that is named as a salt.

The assay deals with human KV7.2/KV7.3 (Homo sapiens (Human), UniProt O43525+O43526). The experiment in a line: Potassium flux assay (IPG-2 AM dye). The assay is classed as cell-based. The note with it: TREX HEK 293 or HEK 293 cells expressing human KV7.2/KV7.3; arithmetic mean values. The text has this:
This potassium flux assay employs the cell-permeable, potassium-sensitive dye, IPG-2 AM, to quantify potassium ion flux through potassium channels.
In general, TREX HEK 293 or HEK 293 cells were stably transfected with either an inducible or non-inducible expression vector containing the full-length cDNA coding for the desired human KV7.2/KV7.3 or in combination with another full-length cDNA for a second desired human KV7 potassium channel. Potassium channel-expressing cell lines were induced with tetracycline (1 μg/mL), if required, and plated on 384-well poly-D-lysine (PDL)-coated plates in culture media (DMEM, containing 10% FBS and 1% L-glutamine). After overnight incubation, culture media was removed and cells were loaded with 5 μM IPG-2 AM dye for 1 hour in Assay buffer (140 mM NaCl, 20 mM RbCl, 2 mM CaCl2, 1 mM MgCl2, 10 mM HEPES (4-(2-hydroxyethyl)-1-piperazineethanesulfonic acid buffer), 10 mM glucose, adjusted with Tris to pH 7.4). Excess dye was removed, and cells incubated at room temperature for 20 minutes with or without test compound. A Hamamatsu FDSS μCell was used to perform a 1:1 addition of K challenge buffer (150 mM NaCl, 10 mM HEPES, 2 mM CaCl2, 10 mM KCl, 1 mM MgCl2, 10 mM glucose, adjusted with Tris to pH 7.4 for human KV7.2/KV7.3, and simultaneously read plates at excitation wavelength of 530 nm and emission wavelength of 558 nm. Non-potassium channel-mediated potassium influx was determined in the presence of DMSO, and maximal influx was determined in the presence of a known KV7.x channel modulator. For each test compound, a concentration response curve was generated with 16 concentrations points, 2-fold serial dilution starting at 30 μM and an EC50 value was determined.
Turning to `CCc1ncc(Nc2nccc3cc(OCC4(F)CC4)ccc23)cn1` [Example 44, N-(2-ethylpyrimidin-5-yl)-6-((1-fluorocyclopropyl)methoxy)isoquinolin-1-amine], the half-maximal effective concentration (EC50) (commonly the midpoint of the concentration-response curve) lay in the range of 10000 to 30000 nM. Next, `C[C@]1(O)CCC[C@@H](Oc2ccc3c(Nc4ccc(Cl)nc4)nccc3c2)C1` [Example 148, (1S,3R)-3-((1-((6-chloropyridin-3-yl)amino)isoquinolin-6-yl)oxy)-1-methylcyclohexan-1-ol]: under 1000 nM; `FC1(COc2ccc3c(Nc4ccc(Cl)nc4)nccc3c2)CC1` [Example 181, N-(6-chloropyridin-3-yl)-6-((1-fluorocyclopropyl)methoxy)isoquinolin-1-amine]: under 1000 nM; `Cc1n[nH]cc1COc1ccc2c(Nc3ccc(Cl)nc3)nccc2c1` [Example 393, N-(6-chloropyridin-3-yl)-6-((3-methyl-1H-pyrazol-4-yl)methoxy)isoquinolin-1-amine]: under 1000 nM. For `O[C@@H]1COC[C@@H]1Oc1ccc2c(Nc3ccc(Cl)nc3)nccc2c1` (racemic) [Example 79, rac-(3R,4S)-4-((1-((6-chloropyridin-3-yl)amino)isoquinolin-6-yl)oxy)tetrahydrofuran-3-ol] the value was 1000 to 10000 nM; for `FC1(F)CCCC(Oc2ccc3c(Nc4ccc(Cl)nc4)nccc3c2)C1` (centres unmarked) [Example 83, N-(6-chloropyridin-3-yl)-6-((3,3-difluorocyclohexyl)oxy)isoquinolin-1-amine], 1000 to 10000 nM. As for `Cc1ncc(Nc2nccc3cc(O[C@H]4CCC[C@@H](O)C4)ccc23)cn1` [Example 339, (1R,3S)-3-((1-((2-methylpyrimidin-5-yl)amino)isoquinolin-6-yl)oxy)cyclohexan-1-ol], the EC50 was under 1000 nM.

`Cc1ncc(Nc2nccc3cc(OC(C)c4cnn(C)c4)ccc23)cn1` (centres unmarked) [Example 169, 6-(1-(1-methyl-1H-pyrazol-4-yl)ethoxy)-N-(2-methylpyrimidin-5-yl)isoquinolin-1-amine]: the EC50 lay within 1000 to 10000 nM. Regarding `Clc1ccc(Nc2nccc3cc(OCc4cnoc4)ccc23)cn1` [Example 368, N-(6-chloropyridin-3-yl)-6-(isoxazol-4-ylmethoxy)isoquinolin-1-amine], the EC50 is under 1000 nM.

As to `Clc1ncc(Nc2nccc3cc(OCc4cnoc4)ccc23)cn1` [Example 242, N-(2-chloropyrimidin-5-yl)-6-(isoxazol-4-ylmethoxy)isoquinolin-1-amine], the EC50 was under 1000 nM.

For the compound `Clc1ccc(Nc2nccc3cc(OC4CCC4)ccc23)cn1` [Example 411, N-(6-chloropyridin-3-yl)-6-cyclobutoxyisoquinolin-1-amine], the EC50 was in the range of 1000 to 10000 nM. For `Cn1cc(COc2ccc3c(Nc4ccc(Cl)nc4)nccc3c2)cn1` [Example 196, N-(6-chloropyridin-3-yl)-6-((1-methyl-1H-pyrazol-4-yl)methoxy)isoquinolin-1-amine] the value was under 1000 nM; for `Clc1ccc(Nc2nccc3cc(OCC4COC4)ccc23)cn1` [Example 223, N-(6-chloropyridin-3-yl)-6-(oxetan-3-ylmethoxy)isoquinolin-1-amine], under 1000 nM. Take `Clc1ccc(Nc2nccc3cc(OCc4cnn5c4CCC5)ccc23)cn1` [Example 281, N-(6-chloropyridin-3-yl)-6-((5,6-dihydro-4H-pyrrolo[1,2-b]pyrazol-3-yl)methoxy)isoquinolin-1-amine]: the EC50 lay in the range of 10000 to 30000 nM.

With `CC(C)C1(COc2ccc3c(Nc4cnc(Cl)nc4)nccc3c2)COC1` [Example 41, N-(2-chloropyrimidin-5-yl)-6-((3-isopropyloxetan-3-yl)methoxy)isoquinolin-1-amine], the EC50 was under 1000 nM.

For `CN(Cc1ccc2c(Nc3ccc(Cl)nc3)nccc2c1)c1cn[nH]c1` [Example 250, N-(6-chloropyridin-3-yl)-6-((methyl(1H-pyrazol-4-yl)amino)methyl)isoquinolin-1-amine], the concentration for a half-maximal effect (EC50) was under 1000 nM.

In the case of `Clc1ccc(Nc2nccc3cc(OCC4CCOC4)ccc23)cn1` (centres unmarked) [Example 415, N-(6-chloropyridin-3-yl)-6-((tetrahydrofuran-3-yl)methoxy)isoquinolin-1-amine], the EC50 was under 1000 nM. In the case of `COc1cc(Nc2nccc3cc(OCC4(C)COC4)ccc23)cnc1C` [Example 187, N-(5-methoxy-6-methylpyridin-3-yl)-6-((3-methyloxetan-3-yl)methoxy)isoquinolin-1-amine formate], the concentration giving a half-maximal response (EC50) is under 1000 nM. For `FC(F)C1(COc2ccc3c(Nc4ccc(Cl)nc4)nccc3c2)COC1` [Example 327, N-(6-chloropyridin-3-yl)-6-((3-(difluoromethyl)oxetan-3-yl)methoxy)isoquinolin-1-amine] the value was under 1000 nM. With `COC1(COc2ccc3c(Nc4ccc(Cl)nc4)nccc3c2)COC1` [Example 220, N-(6-chloropyridin-3-yl)-6-((3-methoxyoxetan-3-yl)methoxy)isoquinolin-1-amine], the EC50 was under 1000 nM.

Consider `FC1(COc2ccc3c(Nc4ccc(Cl)nc4)nccc3c2)CNC1` [Example 59, N-(6-chloropyridin-3-yl)-6-((3-fluoroazetidin-3-yl)methoxy)isoquinolin-1-amine hydrochloride], for which the EC50 was 10000 to 30000 nM. In the case of `Cc1ncc(Nc2nccc3cc(OCCOC4CC4)ccc23)cn1` [Example 38, 6-(2-cyclopropoxyethoxy)-N-(2-methylpyrimidin-5-yl)isoquinolin-1-amine], the EC50 was in the range of 10000 to 30000 nM.

As for `Clc1ccc(Nc2nccc3cc(OCCN4CC5(COC5)C4)ccc23)cn1` [Example 73, 6-(2-(2-oxa-6-azaspiro[3.3]heptan-6-yl)ethoxy)-N-(6-chloropyridin-3-yl)isoquinolin-1-amine], the EC50 is at least 30000 nM.

Regarding `C[C@@](O)(COc1ccc2c(Nc3ccc(Cl)nc3)nccc2c1)C(F)(F)F` [Example 224, (R)-3-((1-((6-chloropyridin-3-yl)amino)isoquinolin-6-yl)oxy)-1,1,1-trifluoro-2-methylpropan-2-ol], the EC50 is under 1000 nM. In the case of `OCC1(COc2ccc3c(Nc4ccc(Cl)nc4)nccc3c2)COC1` [Example 329, (3-(((1-((6-chloropyridin-3-yl)amino)isoquinolin-6-yl)oxy)methyl)oxetan-3-yl)methanol], the EC50 was 1000 to 10000 nM. In the case of `Cc1ncc(Nc2nccc3cc(O[C@@H]4CCC[C@H](O)C4)ccc23)cn1` [Example 340, (1 S,3R)-3-((1-((2-methylpyrimidin-5-yl)amino)isoquinolin-6-yl)oxy)cyclohexan-1-ol], the half-maximal effective concentration (EC50) was under 1000 nM. As for `N#C[C@H]1CCC[C@@H](Oc2ccc3c(Nc4ccc(Cl)nc4)nccc3c2)C1` [Example 345, (1 S,3R)-3-((1-((6-chloropyridin-3-yl)amino)isoquinolin-6-yl)oxy)cyclohexane-1-carbonitrile], the EC50 lay within 1000 to 10000 nM. As for `Cc1ncc(Nc2nccc3cc(OCC4(F)CNC4)ccc23)cn1` [Example 58, 6-((3-fluoroazetidin-3-yl)methoxy)-N-(2-methylpyrimidin-5-yl)isoquinolin-1-amine], the EC50 is at least 30000 nM. For `FC(F)CN1CCC(Oc2ccc3c(Nc4ccc(Cl)nc4)nccc3c2)CC1` [Example 315, N-(6-chloropyridin-3-yl)-6-((1-(2,2-difluoroethyl)piperidin-4-yl)oxy)isoquinolin-1-amine] the value was 1000 to 10000 nM.
